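Exposure lasted 48 hours, with cells grown in 96-well plates and compounds tested at five concentrations. Here, GI50 denotes the concentration required for 50% inhibition of growth. TGI: total growth inhibition.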
Key:
Test in all cases: NCI-60 cell line screen, 48 h
[1] = system: NCI-H460 lung
[2] = system: M19-MEL melanoma
[3] = system: HCC-2998 colon
[4] = system: ACHN renal
[5] = system: OVCAR-3 ovarian
[6] = system: KM20L2 colon
[7] = system: RXF-631 renal
[8] = system: M14 melanoma
[9] = system: TK-10 renal
[10] = system: HOP-92 NSCLC
[11] = system: SN12C renal
[12] = system: LOX IMVI melanoma
[13] = system: PC-3 prostate
[14] = system: SK-MEL-2 melanoma
[15] = system: CCRF-CEM leukemia
[16] = system: BT-549 breast
[17] = system: HS 578T breast
[18] = system: SNB-78 CNS
[19] = system: HT29 colon
[20] = system: OVCAR-8 ovarian
[21] = system: UACC-62 melanoma
[22] = system: RPMI-8226 leukemia
[23] = system: MDA-N
[24] = system: UACC-257 melanoma
[25] = system: UO-31 renal
[26] = system: MDA-MB-435
[27] = system: U251 CNS
[28] = system: HOP-18 NSCLC
[29] = system: HL-60(TB) leukemia
[30] = system: HCT-116 colon
[31] = system: SK-MEL-28 melanoma
[32] = system: K-562 leukemia
[33] = system: LXFL 529 NSCLC
[34] = system: SNB-75 CNS
[35] = system: MALME-3M melanoma
[36] = system: EKVX NSCLC
[37] = system: DMS 273 small cell lung
[38] = system: CAKI-1 renal
[39] = system: SF-295 CNS
[40] = system: SK-OV-3 ovarian
[41] = system: COLO 205 colon
[42] = system: HOP-62 NSCLC
[43] = system: IGROV1 ovarian
[44] = system: DU-145 prostate
[45] = system: OVCAR-4 ovarian
[46] = system: SW-620 colon
[47] = system: T-47D breast
[48] = system: 786-0 renal
[49] = system: A549 NSCLC
[50] = system: SK-MEL-5 melanoma
[51] = system: A498 renal
[52] = system: SF-268 CNS
[53] = system: DMS 114 small cell lung
[54] = system: OVCAR-5 ovarian
[55] = system: KM12 colon
[56] = system: DLD-1 colon
[57] = system: MCF7 breast
[58] = system: RXF 393 renal
[59] = system: NCI-H226 lung
[60] = system: SF-539 CNS
[61] = system: HCT-15 colon
[62] = system: SNB-19 CNS
[63] = system: MOLT-4 leukemia
[64] = system: NCI-H23 lung
[65] = system: XF 498 CNS
[66] = system: MDA-MB-231 breast

C[N+](C)(C)CC1CCC(C[N+](C)(C)C)C1=O (stereo not given)
TGI [1]: 62.8 µM
TGI [2]: 3.83 µM
TGI [3]: 22.5 µM
TGI [4]: 3.49 µM
TGI [5]: 5.32 µM
TGI [6]: 9.78 µM
TGI [7]: 36.4 µM
TGI [8]: 3.35 µM
TGI [9]: 6.39 µM
TGI [10]: 2.28 µM
TGI [11]: 8.18 µM
TGI [12]: 10.3 µM
TGI [13]: 31.3 µM
TGI [14]: 36.9 µM
GI50 [15]: 0.258 µM
TGI [15]: 1.47 µM
TGI [16]: 30.7 µM
TGI [17]: 91.5 µM
TGI [18]: 5.26 µM
TGI [19]: 3.4 µM
GI50 [20]: 14.3 µM
TGI [20]: 38 µM
TGI [21]: 17.9 µM
TGI [22]: 27.2 µM
TGI [23]: 19.3 µM
TGI [24]: 9.05 µM
TGI [25]: 8.51 µM
TGI [26]: 30.7 µM
TGI [27]: 17.1 µM
TGI [28]: 1.85 µM
GI50 [29]: 0.309 µM
TGI [29]: 0.995 µM
TGI [30]: 3.44 µM
GI50 [31]: 5.99 µM
TGI [31]: 11.1 µM
TGI [32]: 1.34 µM
TGI [33]: 1.57 µM
TGI [34]: 3.51 µM
TGI [35]: 2.28 µM
GI50 [36]: 4.43 µM
TGI [36]: 17.5 µM
TGI [37]: 6.37 µM
TGI [38]: 1.55 µM
TGI [39]: 35.9 µM
TGI [40]: 42 µM
GI50 [41]: 0.457 µM
TGI [41]: 1.58 µM
TGI [42]: 36.1 µM
TGI [43]: 13.6 µM
TGI [44]: 30.5 µM
TGI [45]: 10.8 µM
GI50 [46]: 1.18 µM
TGI [46]: 2.86 µM
TGI [47]: 8.28 µM
TGI [48]: 4.06 µM
TGI [49]: 45.8 µM
TGI [50]: 23.8 µM
TGI [51]: 21.9 µM
GI50 [52]: 7.26 µM
TGI [52]: 21.2 µM
TGI [53]: 6.74 µM
TGI [54]: 14.4 µM
TGI [55]: 16.3 µM
TGI [56]: > 100 µM
TGI [57]: 6.05 µM
TGI [58]: 3.71 µM
TGI [59]: 23.3 µM
TGI [60]: 15.5 µM
TGI [61]: 4.18 µM
TGI [62]: 33.5 µM
GI50 [63]: 0.25 µM
TGI [63]: 0.801 µM
TGI [64]: 8.27 µM
TGI [65]: 3.74 µM
TGI [66]: 41.3 µM

— PubChem BioAssay (NCI)
